The structures appear in SMILES notation. Where “and” joins values, the source holds several entries; their conditions need not be identical. Equal entries are not always repeated.

Data on 2 molecules can be found in patent US20260248781A1, “SOLUBLE GUANYLATE CYCLASE ACTIVATORS FOR USE IN THE TREATMENT OF HEART FAILURE WITH PRESERVED EJECTION FRACTION IN WOMEN” (BAYER AKTIENGESELLSCHAFT, priority 2022, published 2026).

What all share (format): in vivo
Test [1] deals with RenTG/L-NAME-supplemented female rats. As to the kind of experiment: RenTG rat model: survival rate assessment in female rats (B-1.3). The settings on record: 3 mg/kg BID, placebo 64.3%. How it is done: Male and female rennin-transgenic rats [TG(mRRen2)27] (RenTG rats) at the age of 8 weeks were used. Rats were randomized in groups with 12-24 rats/group. All groups were then chronically supplemented with L-NAME administrated via drinking water (30-50 mg/l). The L-NAME was dissolved in tap water and stored by room temperature. All groups were treated via oral gavage with either placebo/vehicle consisting of 10% transcutol, 20% cremophor and 70% tap water or different doses of the respective verum. The verum was dissolved in the vehicle and prepared freshly before administration. Study duration with concomitant L-NAME administration and treatment was up to 12 weeks. The baseline blood pressure was measured via tail-cuff method before the start of the treatment and after different time points during the study. Mortality and body weight were assessed on a daily basis. Urine samples were collected via the use of metabolic cages and urine was collected over a period of six hours to quantify proteinuria as correlate of kidney function and different urinary biomarkers for kidney and organ damage. At the end of the study all animals were kept in depth narcotic and bled via aortic puncture and sacrificed by permanent inhaled isoflurane, blood was taken in order to assess plasma parameters, and heart and kidney were weighed and harvested for histopathological evaluation. […]

The subject of test [2] is RenTG/L-NAME-supplemented male rats. As to the kind of experiment: RenTG rat model: survival rate assessment in male rats (B-1.1). The settings on record: for mortality: placebo 58%. How it is done: (§1) Male and female rennin-transgenic rats [TG(mRRen2)27] (RenTG rats) at the age of 8 weeks were used. Rats were randomized in groups with 12-24 rats/group. All groups were then chronically supplemented with L-NAME administrated via drinking water (30-50 mg/l). The L-NAME was dissolved in tap water and stored by room temperature. All groups were treated via oral gavage with either placebo/vehicle consisting of 10% transcutol, 20% cremophor and 70% tap water or different doses of the respective verum. The verum was dissolved in the vehicle and prepared freshly before administration. Study duration with concomitant L-NAME administration and treatment was up to 12 weeks. The baseline blood pressure was measured via tail-cuff method before the start of the treatment and after different time points during the study. Mortality and body weight were assessed on a daily basis. Urine samples were collected via the use of metabolic cages and urine was collected over a period of six hours to quantify proteinuria as correlate of kidney function and different urinary biomarkers for kidney and organ damage. At the end of the study all animals were kept in depth narcotic and bled via aortic puncture and sacrificed by permanent inhaled isoflurane, blood was taken in order to assess plasma parameters, and heart and kidney were weighed and harvested for histopathological evaluation.
The survival rate in % of the RenTG/L-NAME-supplemented male rats treated with either placebo, or 1, 3 and 10 mg/kg runcaciguat (example 1) BID was investigated (see table 1).

For test [3] the test system is unchanged. Nature of the test: RenTG rat model: kidney function by proteinuria (uPCR) in male rats (B-1.2). The settings on record: for uPCR % (normalized to placebo): placebo set as 100%. On the procedure: as §1
Urinary protein to creatinine ratio in the RenTG/L-NAME-supplemented male rats treated with either placebo (set as 100%) or with 1, 3 and 10 mg/kg example 1 (runcaciguat) BID was investigated (see table is 2).

The subject of test [4] is RenTG/L-NAME-supplemented female rats. As to the kind of experiment: RenTG rat model: kidney function by proteinuria (uPCR) in female rats (B-1.4). The settings on record: 3 mg/kg BID; for uPCR % (normalized to placebo): placebo set as 100%. How it is done:
as §1
Urinary protein to creatinine ratio in the RenTG/L-NAME-supplemented female rats treated with either placebo (set as 100%) or 3 mg/kg example 1 BID or example 3 BID respectively. Data are mean±SEM.

In test [5] the test system is RenTG/L-NAME-supplemented male, female and female OVX rats. Nature of the test: RenTG rat model: survival rate in male, female and female ovariectomized (OVX) rats, head-to-head, OD dosing (B-1.5). The settings on record: for % survival: 3 mg/kg OD. How it is done: as §1
In male rat 93% of rats survived whereas in female rats all the rats survived in the sGC activator treatment arm (100%). There was no difference in survival rates in female OVX rats compared to non-OVX rats.

Test [6] has the same test system. Nature of the test: RenTG rat model: proteinuria (uPCR) in male, female and female OVX rats, OD dosing (B-1.6). The settings on record: for Urinary protein to creatinine ratio: 3 mg/kg OD, placebo 100; for reduction of proteinuria: OD. How it is done:
as §1
The most striking differences between male and female were seen on proteinuria. […] In female rats these effects were much more pronounced, and proteinuria was reduced by 88% and by 99% in female rats without OVX and with OVX, respectively.

As usually defined, the mortality is the percentage killed. Read a high mortality as a strong lethal effect. Consider `C[C@H]([C@H](C(=O)Nc1cc([C@@H](CC(=O)O)C2CC2)ccc1Cl)c1ccc(Cl)cc1)C(F)(F)F` [Example 1, (3S)-3-(4-chloro-3-{[(2S,3R)-2-(4-chlorophenyl)-4,4,4-trifluoro-3-methylbutanoyl]amino}phenyl)-3-cyclopropylpropanoic acid], for which the “% survival” value in test [1] is 100%; in test [2] (male rats, 1 mg/kg BID p.o.), 44%; in test [2] (male rats, 3 mg/kg BID p.o., 3 mg/kg), 60% and 61%; in test [2] (male rats, 10 mg/kg BID p.o.), 72%. The “lower survival of male compared to female rats” value in test [2] (3 mg/kg BID, male rats at the point of 64% control survival vs female rats) turned out to be 30%. The mortality in test [2] (male rats, 1 mg/kg BID p.o.) was found to be 56%; in test [2] (male rats, 3 mg/kg BID p.o.), 39%; in test [2] (male rats, 10 mg/kg BID p.o.), 28%. Moreover, in test [2] (male rats, 3 mg/kg BID), the “survival rate at the point when 64% of the male control animals were still alive” value is reported as 70%. Also, the “statistical evaluation of mortality reduction” value in test [2] (male rats, 3 mg/kg BID p.o.) is listed as “strong numerical trend”; in test [2] (male rats, 10 mg/kg BID p.o.), “reached statistical significance”. In addition, in test [2] (male rats, 1, 3 and 10 mg/kg BID p.o.), the “effect on survival rates” value is on record as “dose-dependently increased the survival rates”. Moreover, the reduction of proteinuria turned out to be 15% in test [3] (1 mg/kg BID), 29% in test [3] (3 mg/kg BID), 39% in test [3] (10 mg/kg BID) and 55% in test [4]. The “uPCR % (normalized to placebo)” value in test [3] (1 mg/kg BID) turned out to be 85.4%; in test [3] (3 mg/kg BID), 71.1%; in test [3] (10 mg/kg BID), 60.6%; in test [4] it was 44.5%. Further, the “statistical evaluation of proteinuria reduction” value in test [3] (3 mg/kg BID) and in test [3] (10 mg/kg BID) was “statistically significant” each time.
For the molecule `CC(C)CN1CCN(c2ccc(-c3ccc(Cl)cc3N3CCC[C@@H](n4ncc(C(=O)O)c4C(F)F)C3)cc2)CC1` [Example 3, 1-{3(R)-1-[4-Chloro-4′-(4-isobutylpiperazin-1-yl)[biphenyl]-2-yl]piperidin-3-yl}-5-(difluoromethyl)-1H-pyrazole-4-carboxylic acid], the “% survival” value in test [5] (female OVX rats, placebo 40%) was 100%; in test [5] (female rats, placebo 47%), 100%; in test [5] (male rats, placebo 60%), 93%; in test [1] (3 mg/kg) it was 92,3%. Moreover, in test [5] (once daily dosing (OD)), the “survival rate in male rats lower than in female rats” value turned out to be 7%. The “survival rates in female OVX rats compared to non-OVX rats” value in test [5] (once daily dosing (OD)) is given as “no difference”. Also, the “Urinary protein to creatinine ratio” value in test [6] (female OVX rats) amounted to 1; in test [6] (female rats), 12; in test [6] (male rats), 43. The reduction of proteinuria in test [6] (female rats with OVX) was 99%; in test [6] (female rats without OVX), 88%; in test [6] (male rats), 57%; in test [4] it was 84%. Further, the “uPCR % (normalized to placebo)” value in test [4] was determined as 16.4%.
